Results on 29 compounds are retold here after US5089623A, “Certain imidate insecticides” (Imperial Chemical Industries Plc, priority 1990, dated 1992).

Format in all cases: in vivo
Assay [1] has as its system Aster Leafhopper [Macrosteles fascifrens (Stal)]. The experiment in a line: Aster leafhopper test (LH). Conditions: adults/nymphs, 48 hours, percent in solution.
For assay [2], the system named is Tobacco Budworm [Heliothis virescens (Fabricius)] eggs. Put plainly: Tobacco budworm egg test (TBW-E). To be noted: percent in solution.
Assay [3] relates to Cabbage Looper [Trichoplusia ni (Hubner)]. The experiment in a line: Cabbage looper test (CL). To be noted: second-instar larvae, 3-5 days, percent in solution.
Assay [4] concerns Maize weevil [Sitophilus Zeamais (Motschulsky)]. Put plainly: Maize weevil test (MW). Conditions: adult weevils, treated corn seeds, 48 hours, percent in solution. An outline of the steps:
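Adult weevils (10) were placed with four corn seeds that had been dipped 2-3 s in compound dissolved in 50:50 acetone:water, then dried, and held at about 25° C. Mortality was scored at 48 h. LC50 was taken from dosage-mortality curves and expressed as percent compound in solution, from a 0.01% top concentration.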

The test system of assay [5] is Housefly [Musca domestica]. Put plainly: Housefly insecticidal test (HF). To be noted: per 25 female houseflies, 48 hours.

In the case of `CSc1ccc(Oc2cccc(COC(=Nc3ccc(F)c(Cl)c3)C(C)C)c2)cc1` [Compound 256], the “LC50 LH” value in assay [1] is reported as > 0.05%. Moreover, in assay [2], the “LC50 TBW E” value was 0.1%. For the same compound, in assay [3], the “LC50 CL” value worked out at 0.007%. In assay [4], the “LC50 MW” value is given as > 0.01%. Moreover, the “LC50 HF” value in assay [5] is > 100 µg.
For `CC(C)C(=Nc1cccc(C(F)(F)F)c1)OCc1cc(Oc2ccc(F)cc2)ccn1` [Compound 528], in that order: > 0.05%, > 0.1%, 0.0075%, > 0.01% and 59.1 µg.
The like results for `CCc1ccc(N=C(OCc2ccc(F)c(Oc3ccc(F)cc3)c2)C(C)C)cc1` [Compound 361] were, in that order, < 0.05%, 0.04%, 0.001%, > 0.01% and < 100 µg.
The like results for `CCc1ccc(N=C(OCc2ccc(F)c(Oc3ccccc3)c2)C(C)C)cc1` [Compound 360] were, in that order, < 0.05%, > 0.1%, 0.006%, > 0.01% and < 100 µg.
On to `CC(C)C(=Nc1ccc(C#N)cc1)OCc1cccc(Oc2ccccc2)c1` [Compound 172], for which, in assay [1], the “LC50 LH” value is listed as > 0.05%. Also, the “LC50 TBW E” value in assay [2] is listed as 0.04%. In addition, in assay [3], the “LC50 CL” value came out at 0.002%. The “LC50 MW” value in assay [4] is recorded as > 0.01%. Also, the “LC50 HF” value in assay [5] is 5 µg.
Regarding `CC(C)C(=Nc1cccc(C(C)(C)C)c1)OCc1cccc(Oc2ccc(F)cc2)c1` [Compound 350], the “LC50 LH” value in assay [1] is recorded as > 0.05%. The “LC50 TBW E” value in assay [2] is reported as > 0.1%. Besides, the “LC50 CL” value in assay [3] turned out to be 0.0045%. Moreover, the “LC50 MW” value in assay [4] is > 0.01%. In addition, in assay [5], the “LC50 HF” value is > 100 µg.
`C#CCc1c(F)c(F)c(COC(=Nc2ccc3c(c2)OCO3)C(C)C)c(F)c1F` [Compound 547]: in assay [1], the “LC50 LH” value was < 0.05%. For the same compound, the “LC50 TBW E” value in assay [2] stood at 0.05%. The “LC50 CL” value in assay [3] amounted to 0.0005%. The “LC50 MW” value in assay [4] is recorded as > 0.01%. Besides, the “LC50 HF” value in assay [5] was < 100 µg.
`CC(C)C(=Nc1ccc2c(c1)OCO2)OCc1cccc(Oc2ccc(Cl)cn2)c1` [Compound 532]: in assay [1], the “LC50 LH” value is listed as > 0.05%. The “LC50 TBW E” value in assay [2] is recorded as > 0.1%. For the same compound, the “LC50 CL” value in assay [3] is on record as < 0.1%. Besides, the “LC50 MW” value in assay [4] is recorded as > 0.01%. Also, the “LC50 HF” value in assay [5] was > 100 µg.
Consider `Cc1ccc(N=C(OCc2ccc(F)c(Oc3ccc(F)cc3)c2)C(C)C)cc1Cl` [Compound 357], for which, in assay [1], the “LC50 LH” value was < 0.05%. The “LC50 TBW E” value in assay [2] is listed as > 0.1%. Also, the “LC50 CL” value in assay [3] was > 0.1%. Further, the “LC50 MW” value in assay [4] is reported as 0.01%. For the same compound, in assay [5], the “LC50 HF” value is < 100 µg.
Regarding `Cc1ccc(N=C(OCc2cccc(Oc3ccccc3)c2)C(C)C)cc1` [Compound 156], the “LC50 LH” value in assay [1] is given as > 0.05%. Further, in assay [2], the “LC50 TBW E” value amounted to 0.05%. The “LC50 CL” value in assay [3] is recorded as 0.004%. The “LC50 MW” value in assay [4] is recorded as > 0.01%. The “LC50 HF” value in assay [5] amounted to 10 µg.
In the case of `CC(C)C(=Nc1ccc(F)cc1)OCCc1cccc(Oc2ccccc2)c1` [Compound 456], the “LC50 LH” value in assay [1] is > 0.05%. For the same compound, the “LC50 TBW E” value in assay [2] was > 0.05%. In assay [3], the “LC50 CL” value amounted to 0.017%. Besides, the “LC50 MW” value in assay [4] is recorded as > 0.01%. Moreover, the “LC50 HF” value in assay [5] is > 100 µg.
Turning to `CC(C)C(=Nc1ccccc1)OCc1cccc(Oc2ccccc2)c1` [Compound 43], in assay [1], the “LC50 LH” value is on record as > 0.05%. In addition, the “LC50 TBW E” value in assay [2] stood at 0.05%. In assay [3], the “LC50 CL” value amounted to 0.018%. The “LC50 MW” value in assay [4] is > 0.01%. In addition, the “LC50 HF” value in assay [5] worked out at 7 µg.
Take `CC(C)(F)C(=Nc1ccc(F)c(Cl)c1)OCc1cc(Oc2ccc(F)cc2)ccc1F` [Compound 316]: the “LC50 LH” value in assay [1] was > 0.05%. For the same compound, the “LC50 TBW E” value in assay [2] is > 0.1%. Further, the “LC50 CL” value in assay [3] is reported as 0.0015%. In assay [4], the “LC50 MW” value is on record as > 0.01%. Also, in assay [5], the “LC50 HF” value is 100 µg.
For `Cc1ccc(N=C(OCc2ccc(F)c(Oc3ccc(F)cc3)c2)C(C)C)cc1F` [Compound 355], the “LC50 LH” value in assay [1] is on record as < 0.05%. Besides, the “LC50 TBW E” value in assay [2] is reported as > 0.1%. In addition, the “LC50 CL” value in assay [3] is > 0.1%. Also, the “LC50 MW” value in assay [4] is reported as > 0.01%. The “LC50 HF” value in assay [5] is < 100 µg.
With `CC(C)C(=Nc1ccc(Cl)cc1)OCc1cccc(Oc2ccc(F)cc2)c1` [Compound 189], the “LC50 LH” value in assay [1] was 0.002%. The “LC50 TBW E” value in assay [2] was 0.07%. Also, the “LC50 CL” value in assay [3] is reported as 0.00027%. Also, the “LC50 MW” value in assay [4] is > 0.01%. Also, the “LC50 HF” value in assay [5] stood at 17 µg.
As for `CCC(=Nc1ccc2c(c1)OCO2)OCc1cccc(Oc2ccccc2)c1` [Compound 178], the “LC50 LH” value in assay [1] is recorded as > 0.05%. Moreover, in assay [2], the “LC50 TBW E” value is > 0.1%. Moreover, in assay [3], the “LC50 CL” value was found to be 0.004%. In addition, in assay [4], the “LC50 MW” value is on record as > 0.01%. In addition, in assay [5], the “LC50 HF” value is 6 µg.
The like results for `Fc1ccc(N=C(OCc2cccc(Oc3ccccc3)c2)C(F)F)cc1` [Compound 50] were, in that order, > 0.05%, > 0.05%, 0.02%, > 0.01% and 43 µg.
Turning to `CSc1cccc(N=C(OCc2ccc(F)c(Oc3ccccc3)c2)C(C)C)c1` [Compound 362], the “LC50 LH” value in assay [1] is recorded as > 0.05%. Further, the “LC50 TBW E” value in assay [2] is > 0.1%. In addition, the “LC50 CL” value in assay [3] is > 0.1%. The “LC50 MW” value in assay [4] is reported as > 0.01%. Further, the “LC50 HF” value in assay [5] is < 100 µg.
In the case of `CC(C)C(=Nc1cccc(I)c1)OCc1cccc(Oc2ccc(F)cc2)c1` [Compound 255], the “LC50 LH” value in assay [1] is listed as 0.0005%. Further, the “LC50 TBW E” value in assay [2] is listed as 0.075%. For the same compound, the “LC50 CL” value in assay [3] is 0.00017%. The “LC50 MW” value in assay [4] is > 0.01%. For the same compound, the “LC50 HF” value in assay [5] came out at 16 µg.
As for `CC(C)C(=Nc1cc(Cl)ccc1Cl)OCc1cccc(Oc2ccccc2)c1` [Compound 13], the “LC50 LH” value in assay [1] is reported as > 0.05%. Moreover, in assay [2], the “LC50 TBW E” value is > 0.1%. In addition, the “LC50 CL” value in assay [3] is 0.014%. Besides, the “LC50 MW” value in assay [4] is recorded as > 0.01%. Besides, in assay [5], the “LC50 HF” value is > 100 µg.
The like results for `CC(C)C(=Nc1cccc(Br)c1)OCc1cccc(Oc2ccccc2)c1` [Compound 128] were, in that order, 0.003%, 0.037%, 0.005%, > 0.01% and 4.5 µg.
Consider `CC(C)C(=Nc1ccccc1Cl)OCc1cccc(Oc2ccccc2)c1` [Compound 17], for which the “LC50 LH” value in assay [1] was > 0.05%. The “LC50 TBW E” value in assay [2] is on record as > 0.1%. Moreover, in assay [3], the “LC50 CL” value amounted to 0.03%. Further, the “LC50 MW” value in assay [4] is on record as > 0.01%. Besides, in assay [5], the “LC50 HF” value was 75 µg.
Consider `CC(C)(C)C(=Nc1ccc(F)c(F)c1)OCc1coc(Cc2ccccc2)c1` [Compound 525], for which, in assay [1], the “LC50 LH” value was > 0.05%. In assay [2], the “LC50 TBW E” value is recorded as > 0.1%. The “LC50 CL” value in assay [3] is < 0.1%. For the same compound, the “LC50 MW” value in assay [4] is on record as > 0.01%. In addition, in assay [5], the “LC50 HF” value is > 100 µg.
For `CC(C)C(=Nc1ccc(F)c(Cl)c1)OCc1cccc(Oc2ccc(F)c(F)c2)c1` [Compound 217], in that order: > 0.05%, 0.015%, 0.00006%, 0.0084% and 8 µg.
As to `CC(C)C(=Nc1ccc(F)c(Cl)c1)OCc1cccc(Oc2ccccc2F)c1` [Compound 119], the “LC50 LH” value in assay [1] worked out at 0.0008%. Further, in assay [2], the “LC50 TBW E” value is given as 0.048%. In addition, in assay [3], the “LC50 CL” value is 0.0007%. In addition, the “LC50 MW” value in assay [4] is reported as > 0.01%. Also, in assay [5], the “LC50 HF” value came out at 27 µg.
For the compound `C=C(C)C(=Nc1ccc(Cl)cc1)OCc1cccc(Oc2ccccc2)c1` [Compound 6], in assay [1], the “LC50 LH” value is reported as > 0.05%. For the same compound, in assay [2], the “LC50 TBW E” value was determined as 0.015%. In assay [3], the “LC50 CL” value was determined as 0.02%. Moreover, in assay [4], the “LC50 MW” value was > 0.01%. Besides, the “LC50 HF” value in assay [5] was found to be 17 µg.
`CC(C)C(=Nc1ccc(F)c(Cl)c1)OCc1cccc(Nc2ccc(F)cc2)c1` [Compound 512]: in assay [1], the “LC50 LH” value is recorded as > 0.05%. For the same compound, in assay [2], the “LC50 TBW E” value is > 0.1%. Further, the “LC50 CL” value in assay [3] is given as 0.003%. Also, the “LC50 MW” value in assay [4] is on record as > 0.01%. Besides, the “LC50 HF” value in assay [5] was 35 µg.
For the compound `CSc1ccc(N=C(OCc2cccc(Oc3ccccc3)c2)C(C)C)cc1` [Compound 142], the “LC50 LH” value in assay [1] was > 0.05%. Besides, the “LC50 TBW E” value in assay [2] is recorded as 0.1%. Moreover, in assay [3], the “LC50 CL” value came out at 0.005%. In assay [4], the “LC50 MW” value is on record as > 0.01%. The “LC50 HF” value in assay [5] came out at 15 µg.
For `CCC(=Nc1ccc(F)c(F)c1)OCc1coc(Cc2ccccc2)c1` [Compound 524], the “LC50 LH” value in assay [1] is > 0.05%. In addition, in assay [2], the “LC50 TBW E” value is given as > 0.1%. Also, in assay [3], the “LC50 CL” value is reported as > 0.1%. In assay [4], the “LC50 MW” value was > 0.01%. Moreover, the “LC50 HF” value in assay [5] stood at 5.2 µg.
